The text below walks through data of article PMC12867150, “A fungi-derived cyclic peptide enhances Th9-mediated antitumor immunity by targeting ZAP70 and SREBP1” (The Journal of Clinical Investigation, 2025).

“And” between values parts separate entries of the source, which are not always exact repeats. Equal values may be shown once.

In experiment [1] the test system is Th9 cells. As to the kind of experiment: Seahorse extracellular acidification rate, glycolysis stress test (Figure 4B-D). The experiment is classed as cell-based, mouse. Further details: basal glycolysis of seahorse extracellular flux: unit not given here. How it is done:
After stimulation, cells were washed, resuspended in Seahorse XF assay medium (Agilent Technologies; pH 7.40–7.45, catalog 103576-100) and seeded at 5 × 10^5 cells per well in Seahorse XF96 microplates. Plates were centrifuged at 400 × g for 5 minutes to promote adherence and monolayer formation, and all conditions were tested in quadruplicate.
Glycolytic activity was measured on a Seahorse XFe96 Extracellular Flux Analyzer (Agilent Technologies) using the XFe96 Glycolysis Stress Test kit (Agilent Technologies, catalog 103020-100) per the manufacturer’s instructions. Sequential injections of glucose (10 mM), oligomycin (1 μM), and 2-deoxyglucose (2-DG; 50 mM) were administered to determine ECAR as a proxy for glycolytic function. A glycolytic index was calculated from ECAR values obtained before and after each injection.

The test system of a further experiment is human Th9 CAR T cells. Nature of the experiment: Intracellular ATP of human Th9 CAR T cells (S9F). The class given is cell-based. Particulars: result in words. How it is done: Intracellular adenosine triphosphate (ATP) levels were measured using a chemiluminescent ATP assay kit (Beyotime, catalog S0026) according to the manufacturer’s protocol. Briefly, cells were lysed and incubated with the luciferase-based detection reagent, and the resulting luminescent signal was detected using an Infinite M200 multimode microplate reader (TECAN). ATP concentrations were calculated based on a standard curve and normalized to cell number or protein content where applicable.
Ct EpA Fat Fat Ct EpA Fat Fat
(A) Flow-cytometric analysis of intracellular IL-9 expression in human Th9 cells […]
(B) Flow-cytometric assessment of mitochondrial mass using Mito Tracker in human Th9 cells treated as in (A) (n = 3).
(C) Flow-cytometric analysis of infection efficiency in Th9 cells transduced with a CD19-directed CAR lentivirus. (D and E) Flow-cytometric analysis of IL-9 expression in human Th9 CAR-T cells on days 5 and 6 of in vitro differentiation, showing representative plots (D) and quantification (E) (n = 3). […]
(G) Flow-cytometric analysis of mitochondrial mass using Mito Tracker in human Th9 CAR-T c e l l s (n = 3). (H and I) Flow-cytometric analysis of granzyme B⁺ CAR-Th9 cells isolated from spleens after adoptive transfer, showing representative plots (H) and quantification (I) (n = 5 mice per group). […]

The test system of experiment [2] is Th9 cells. Nature of the experiment: IL-9+ Th9 cells with MEK or ERK inhibition (Figure 5H). The experiment is classed as cell-based, mouse. Particulars: for IL-9 (flow cytometric quantification): Figure 5H, individual replicates, (n = 5). The method, then:
(A) Identification and ranking of EpA-interacting proteins by affinity pulldown and LC-MS/MS, ordered by in silico binding energy predictions. […] (E) Flow-cytometric analysis of phosphorylated ZAP70 in Th9 cells 10 minutes after TCR activation (mean ± SEM, n = 3). (F) Pathway enrichment analysis of RNA-seq data showing MAPK/ERK-related pathways in EpA-treated Th9 cells. (G) Immunoblot analysis of total and phosphorylated MEK1/2 and ERK1/2 in control and EpA-treated Th9 cells. (H–L) Functional consequences of MEK or ERK inhibition in EpA-treated Th9 cells. […] Data in H–K are shown as mean ± SEM (n = 5) and in L as mean ± SEM (n = 3). Statistical significance was determined using 1-way ANOVA followed by Tukey’s test (E, H–L). *P < 0.05, **P < 0.01, ***P < 0.001, ****P < 0.0001.
T cell polarization was initiated under plate-bound anti-CD3 (2 μg/mL, clone 17A2, BioXCell, catalog BE0002) and soluble anti-CD28 (1 μg/mL, clone 37.51, BioXCell, catalog BE0015-1) stimulation, with the addition of cytokines and neutralizing antibodies specific to each subset. For Th9 cells, these included IL-4 (10 ng/mL, Peprotech, catalog 400-04), TGF-β (1 ng/mL, EPOTO Biotech, catalog HF-2021), anti–IL-12 (5 μg/mL, clone C17.8, BioXCell, catalog BE0051), and anti–IFN-γ (10 μg/mL, clone XMG1.2, BioXCell, catalog BE0055); for Th1 cells, these included IL-12 (10 ng/mL, GenScript, catalog Z03211-50) and anti–IL-4 (5 μg/mL, clone 11B11, BioXCell, catalog BE0045); for Th2 cells, these included IL-4 (50 ng/mL), anti–IFN-γ (20 μg /mL), anti–IL-12 (5 μg/mL), Th17 cells: IL-6 (20 ng/mL, EPOTO Biotech, catalog MF-1006), TGF-β (1 ng/mL), IL-1β (10 ng/mL, Peprotech, catalog AF-211-11B), anti–IFN-γ (10 μg/mL), anti–IL-12 (5 μg/mL), and anti–IL-4 (5 μg/mL); and for Tregs, these included TGF-β (3 ng/mL). After 3 days of initial culture, cells were either collected for downstream assays or continued in extended culture with refreshed cytokines to maintain lineage commitment.
The following pharmacological inhibitors were used at the indicated final concentrations: trametinib (MEK1/2 inhibitor; Selleck, catalog S4484) at 10 nM; temuterkib (ERK1/2 inhibitor; MCE, catalog HY-101494) at 100 nM; and fatostatin hydrobromide (SREBP inhibitor; MCE, catalog HY-14452A) at 5 μM. Dead cells were detected using Fixable Viability Dye eFluor 780 (eBioscience, catalog 65-0865).
For orientation: A flow cytometer gives signals particle by particle.

The mark [3] stands for this setting: EpA 10 μM, 4 days, result in words.

Consider anteiso-C15 Leu7 surfactin [EpA], for which the “basal and maximal ECAR” value in the experiment with Th9 cells [1] (setting [3]) was “significantly elevated”. The “extracellular acidification rate (ECAR)” value with Th9 cells [1] (setting [3]) was “marked increase”. In the experiment on Th9 cells [1] (Figure 4C, individual replicates, n = 6), the “basal glycolysis of seahorse extracellular flux” value was 3.18 and 3.13 and 4.92 and 4.79 and 3.98 and 4.85. Moreover, in the experiment with Th9 cells [1] (Figure 4D, individual replicates, n = 6, in mpH/min (unit assumed)), the “max glycolytic capacity of seahorse extracellular flux” value is 34.82 and 36.26 and 48.55 and 43.93 and 34.44 and 51.9. Besides, the “ATP output, Th9 CAR T” value with human Th9 CAR T cells was “elevated”. The “IL-9 (flow cytometric quantification)” value is 5.8 and 5.06 and 4.72 and 7.22 and 6.36 in the experiment on Th9 cells [2] (EpA + ERKin combination); 0.49 and 3.03 and 0.46 and 0.71 and 0.77 in the experiment on Th9 cells [2] (EpA + MEKin combination); 50.6 and 51.1 and 72.2 and 66.2 and 42.3 with Th9 cells [2] (single agent). In the experiment on Th9 cells [2] (trametinib 10 nM, temuterkib 100 nM, result in words), the IL-9 production result is “unable to restore it”.
